Measurements: patent publication US20140073639A1 (priority 2012, published 2014)
In brackets after ≈: the same amount, converted by molar mass. Several values for one entry are separate records, joined by “and”; a condition that tells them apart may be missing. Equal entries are not always repeated. Where two headings read alike, the source gives them in different places.

Key:
S. aureus RN4220 [1] = assay: microbe, parasite or virus in culture; type: cell-based; settings: Staphylococcus aureus, 37° C., 24 hours
B. anthracis ΔSterne = type: cell-based
S. aureus strain RN4220 = type: cell-based, Staphylococcus aureus
[2] = system: Gram-positive organisms that also encode 2-epimerases; type: cell-based
B. anthracis Sterne = type: in vivo, C57BL/6 mice
S. aureus RN4220 [3] = type: cell-based
B. Anthracis = assay: microbe, parasite or virus in culture; type: cell-based; settings: for inhibition at 10 µM / inhibition at 30 µM / inhibition at 3 µM: Bacillus anthracis; for inhibition at 10 µM: read-out: B. Anthracis 10 μM (growth inhibition); for inhibition at 30 µM: read-out: B. Anthracis 30 μM (growth inhibition); for inhibition at 3 µM: read-out: B. Anthracis 3 μM (growth inhibition)
S. MRSA = assay: microbe, parasite or virus in culture; type: cell-based; settings: for inhibition at 10 µM / inhibition at 30 µM / inhibition at 3 µM: Staphylococcus aureus, MRSA; for inhibition at 10 µM: read-out: S. MRSA 10 μM (growth inhibition); for inhibition at 30 µM: read-out: S. MRSA 30 μM (growth inhibition); for inhibition at 3 µM: read-out: S. MRSA 3 μM (growth inhibition)
[4] = type: cell-based

| Compound | inhibition at 10 µM (B. Anthracis; 10 μM) [%] | inhibition at 30 µM (B. Anthracis; 30 μM) [%] | inhibition at 10 µM (S. MRSA; 10 μM) [%] | inhibition at 30 µM (S. MRSA; 30 μM) [%] | MIC, 25% Serum [4] [µM] | MIC, No Serum [4] [µM] | inhibition at 3 µM (B. Anthracis; 3 μM) [%] | inhibition at 3 µM (S. MRSA; 3 μM) [%] | other results |
| --- | --- | --- | --- | --- | --- | --- | --- | --- | --- |
| O=C(O)C(Cc1ccccc1)N1C(=O)/C(=C\c2ccc(-c3ccc(Br)cc3)s2)NC1=S (stereo not drawn) [Epimerox, 2-{4-[5-(4-bromophenyl)-thiophen-2-ylmethylene]-5-oxo-2-thioxo-imidazolidin-1-yl}-3-phenyl-propionic acid] | – | – | – | – | – | – | – | – | MIC (S. aureus RN4220 [1]): 8 µg/mL and 16 µM; concentrations that effectively blocked growth (B. anthracis ΔSterne): above 3 μM; Epimerox concentrations at which strain did not grow (S. aureus strain RN4220): above 7.5 μm1^−1; growth of S. aureus (S. aureus strain RN4220): grew very poorly; growth of many other Gram-positive organisms [2]: inhibited the growth; B. anthracis in the major organs (B. anthracis Sterne; after 2 days): not observed; B. anthracis in the major organs (B. anthracis Sterne; at 20 hours): detected; animals survived 14 days (B. anthracis Sterne; mouse, in vivo): 100% and 66%; MIC plateau, serial passage (S. aureus RN4220 [3]): 12 μg m1^−1; starting MIC, serial passage (S. aureus RN4220 [3]): 5.0 μg m1^−1 |
| CCOC(=O)C(Cc1ccccc1)N1C(=O)/C(=C\c2ccc(-c3ccc(Cl)c(Cl)c3)o2)NC1=S (stereo not drawn) [Cmpd 55] | -50.8 | -6.41 | 0.57 | -2.92 | >250 | >250 | – | – | – |
| N#CNC(=O)C(Cc1ccccc1)N1C(=O)/C(=C\c2ccc(-c3ccc(Cl)c(Cl)c3)o2)NC1=S (stereo not drawn) [Cmpd 69] | 100 | 99.2 | 0.65 | 97.5 | 250 (≈ 128 µg/mL) | 15.6 (≈ 7.98 µg/mL) | 0.13 | 0.03 | – |
| O=C(O)C(Cc1ccccc1)N1C(=O)/C(=C\c2ccc(-c3ncc(Cl)cc3Cl)o2)NC1=S (stereo not drawn) [Cmpd 72] | 9.07 | 98.1 | -5.02 | 53 | 250 (≈ 122 µg/mL) | 62.5 (≈ 30.5 µg/mL) | -13.5 | -2.17 | – |
| O=C1Nc2cc(Cl)c(Br)cc2/C1=C1/NC(=S)N(C(Cc2ccccc2)C(=O)O)C1=O (stereo not drawn) [Cmpd 32] | 40.2 | 98.8 | -19.4 | 93.8 | >250 | – | 11.3 | -11.9 | – |
| O=C(O)[C@H](Cc1ccccc1)N1C(=O)/C(=C\c2ccc(-c3ccc(Cl)c(Cl)c3)o2)NC1=S [Cmpd 48] | 108 | 107 | 80.6 | 104 | 250 (≈ 122 µg/mL) | 7.8 (≈ 3.8 µg/mL) | -0.39 | -16.1 | – |
| O=C([O-])C(Cc1ccccc1)N1C(=O)/C(=C\c2ccc(-c3cccc(Cl)c3)o2)NC1=S.[Na+] (stereo not drawn) [Cmpd 67] | 4.51 | 87.6 | -4.15 | -7.41 | >250 | 250 | 6.01 | 0.37 | – |
| O=C(O)C(Cc1ccccc1)N1C(=O)/C(=C\c2ccc(-c3ccc(Cl)c(Cl)c3)o2)NC1=S (stereo not drawn) [Cmpd 46] | – | – | – | – | >250 | 15.6 (≈ 7.6 µg/mL) | – | – | B. Anthracis 3 μM (growth inhibition) (B. Anthracis; 3 μM): 108.4; B. Anthracis 10 μM (growth inhibition) (B. Anthracis; 10 μM): 108.46; B. Anthracis 30 μM (growth inhibition) (B. Anthracis; 30 μM): 106.96; S. MRSA 3 μM (growth inhibition) (S. MRSA; 3 μM): −17.39; S. MRSA 10 μM (growth inhibition) (S. MRSA; 10 μM): 93.71; S. MRSA 30 μM (growth inhibition) (S. MRSA; 30 μM): 103.37 |
| O=C(O)C(Cc1ccccc1)N1C(=O)/C(=C\c2ccc(Cl)c(Cl)c2)NC1=S (stereo not drawn) [Cmpd 71] | -8.93 | -17.3 | -2.74 | -5.12 | >250 | >250 | 0.05 | -0.86 | – |
| N#CNC(=O)C(Cc1ccccc1)N1C(=O)/C(=C\c2ccc(-c3cccc(Cl)c3)o2)NC1=S (stereo not drawn) [Cmpd 68] | 6.31 | 12.5 | -1.1 | -0.93 | >250 | 125 (≈ 59.6 µg/mL) | -1.9 | -0.24 | – |
| O=C(O)[C@@H](Cc1ccccc1)N1C(=O)/C(=C\c2ccc(-c3ccc(Cl)c(Cl)c3)o2)NC1=S [Cmpd 47] | 107 | 107 | 84.4 | 103 | 250 (≈ 122 µg/mL) | 7.8 (≈ 3.8 µg/mL) | 9.41 | -13.8 | – |
| O=C(O)C(Cc1ccccc1)N1C(=O)/C(=C\c2ccc(-c3ccc(Cl)cc3)o2)NC1=S (stereo not drawn) [Cmpd 38] | 68.9 | 99.7 | -16.9 | 86.6 | >250 | 62.5 (≈ 28.3 µg/mL) | 4.99 | -13.5 | – |
| CCC(C(=O)NS(C)(=O)=O)N1C(=O)/C(=C\c2ccc(-c3ccc(Cl)c(Cl)c3)o2)NC1=S (stereo not drawn) [Cmpd 59] | 6.23 | 19.6 | 2.56 | 0.06 | >250 | 125 (≈ 62.8 µg/mL) | 6.4 | 1.71 | – |
| O=C(O)C(Cc1ccccc1)N1C(=O)/C(=C\c2ccc(-c3ccccc3)o2)NC1=S (stereo not drawn) [Cmpd 60] | 11.6 | 18 | -5.71 | -8.8 | >250 | 125 (≈ 52.3 µg/mL) | 2.29 | -2.55 | – |
| O=C(NS(=O)(=O)C(F)(F)F)C(Cc1ccccc1)N1C(=O)/C(=C\c2ccc(-c3ccc(Cl)c(Cl)c3)o2)NC1=S (stereo not drawn) [Cmpd 58] | 98.7 | 97.4 | 81.7 | 94.5 | >250 | 7.8 (≈ 4.82 µg/mL) | 69.4 | 0.23 | – |
| CS(=O)(=O)NC(=O)C(Cc1ccccc1)N1C(=O)/C(=C\c2ccc(-c3ccc(Cl)c(Cl)c3)o2)NC1=S (stereo not drawn) [Cmpd 57] | 96.4 | 90.2 | 30.9 | 58 | >250 | 15.6 (≈ 8.81 µg/mL) | 45.2 | 3.18 | – |
| O=C(O)[C@H](Cc1ccccc1)N1C(=O)/C(=C\c2ccc(-c3cc(C(F)(F)F)ccc3Cl)o2)NC1=S [Cmpd 53] | 95.5 | 92.5 | 92.3 | 92.9 | >250 | 15.6 (≈ 8.13 µg/mL) | 88.2 | -4.72 | – |
